Test results taken from patent US20230203060A1 (GENFLEET THERAPEUTICS (SHANGHAI) INC., priority 2020, published 2023).

Key:
[1] = test system: phosphorylated ERK downstream of KRAS G12C in MIA PaCa2 cells; assay: Cell p-ERK detection experiment (HTRF) in MIA PaCa2; format: cell-based, human; conditions: Homo sapiens, MIA PaCa-2, 2 h, MIA PaCa2 cells, 2 hours with compound, Advance ERK phospho-T202/Y204 HTRF kit; read-out: p-ERK IC50
Excerpt: Raw materials and instruments: MIA PaCa-2 purchased from ATCC; article number: CRL-1420; batch number: 63143594; DMEM purchased from Gibco; article number: 11995-065; batch number: 2186878; FBS purchased from Gibco; article number: 10099-141; batch number: 2109290CP; Horse serum purchased from Gibco; article number: 16050-122; batch number: 1818976; Trypsin-EDTA purchased from Gibco; article number: 25200-072; batch number: 2085552; PS purchased from Gibco; article number: 15140-122; batch number: 2145451; DMSO purchased from VWR AMRESCO; article number: 0231-500ML; batch number: 0457C072; 96-well cell culture plate purchased from Corning; article number: 3599; batch number: 22718601; white opaque 96-well plate purchased from Cisbio; article number: 66PL96025; batch number: N°05; Advance ERK phospho-T202/Y204 kit purchased from Cisbio; article number: 64AERPEH; batch number: 11D; microplate reader purchased from PerkinElmer; model: Envision MLD2105-0020; equipment number 1050369.
MIA PaCa2 was a KRAS G12C mutant human pancreatic cancer cell line cultured in 10% FBS+2.5% Horse serum DMEM culture medium. Cells at logarithmic growth stage were taken, digested with trypsin-EDTA, then collected and counted, and 2.5E4 cells were inoculated in a 96-well cell culture plate and cultured overnight. A 3.16-fold gradient concentration stock solution of 1000× compound was prepared with DMSO, and diluted 200-fold to 5× compound stock solution with culture medium. On the second day after cell inoculation, 5× compound stock solution was added to each cell culture well, with a final concentration of 1× and a DMSO content of 0.1%. DMSO was used as experimental control (control). After the compound was added and cultured for two hours, the residual culture medium was removed. 50 μL of cell lysate (from Advance ERK phospho-T202/Y204 kit, the same below) was added to each well, mixed well and incubated for 30 minutes, and then 16 μL of the mixed solution was transferred to a white opaque 96-well plate, and 16 μL of cell lysate was added to the blank wells. After the transfer was completed, 4 μL of p-ERK HTRF antibody (from Advance ERK phospho-T202/Y204 kit) mixture was added to each well, incubated for 4 hours, and the fluorescence value was read with the microplate reader. The inhibition rate of the compound IR (%)=(RLU control -RLU compound)/(RLU control-RLU blank)×100% was calculated. The gradient dilution concentration of the compound and the corresponding cell proliferation inhibition rate were fitted by Prism 8 four-parameter method, and the IC50 value was calculated. The compounds prepared in the above embodiments of the present disclosure have inhibitory activity of 0.0001 μM to 1 μM on the phosphorylated ERK level downstream of the cell channel of KRAS G12C protein mutant; some compounds have inhibitory activity of 0.001 μM to 1 μM or 0.001 μM to 0.5 μM on phosphorylated ERK level downstream of cell channel of KRAS G12C protein mutant.

KRAS G12C = biological target: T1, KRAS G12C (Homo sapiens, UniProt P01116, G12C); assay: KRAS G12C NEA-HTRF experiment (SOS1-catalyzed displacement of GDP by GTP); format: biochemical
T1 construct: purchased Reactionbiology
T1 sequence (P01116 1-188 isoform P01116-2 G12C): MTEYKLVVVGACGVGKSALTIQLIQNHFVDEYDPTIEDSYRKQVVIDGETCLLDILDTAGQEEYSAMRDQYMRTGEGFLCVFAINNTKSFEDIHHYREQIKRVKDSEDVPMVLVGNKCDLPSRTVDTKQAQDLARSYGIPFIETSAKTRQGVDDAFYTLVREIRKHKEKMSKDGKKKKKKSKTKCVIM
Excerpt: Raw materials and instruments: KRAS G12C (his-tag) purchased from Reactionbiology; batch number 3496; SOS1 purchased from Reactionbiology; batch number: 3501; GTP purchased from Sigma; article number: G8877; batch number: SLBV1450; Tris-HC1 purchased from Sigma; EDTA purchased from absin; article number: abs42017668; batch number: JE20; NaCl purchased from Sigma; article number: 55886; batch number: SLBW4193; MgCl2 purchased from Shyuanye; article number: R21455; batch number: L07S9G69806; HEPES purchased from Life Technologies; article number: 15630-080; batch number: 2037042; DTT purchased from Thermo Fisher; article number: R0862; batch number: 00608918; Triton X-100 purchased from Sigma; article number: T8787-100 ML; batch number: SLBW7103; DY647-labeled GDP purchased from Jena Bioscience; article number: NU-840-647P1; batch number: BM019-045; Anti-6H1S-Tb purchased from Cisbio; article number: 61H12TLA; batch number: 13A; Bradford Assay Kit purchased from Thermo Fisher; article number: 23246; batch number: UG287474; white opaque 96-well plate purchased from Cisbio; article number: 66PL96025; batch number: N°06; NAP-5 column purchased from GE Healthcare; article number: 17085301; batch number: 16995164; mircoplate reader purchased from PerkinElmer; model: Envision MLD2105-0020; equipment number 1050369. The effect of compounds on SOS1-catalyzed displacement of GDP by GTP on KRAS protein was examined using a homogeneous time-resolved fluorescence (HTRF) method. 30 μM 6×his-tagged KRAS G12C recombinant protein was incubated with 80 μM fluorescent dye DY647-labeled GDP in labeling buffer (1 mM DTT, 7.5 mM EDTA, 25 mM Tris-HCl, 45 mM NaCl) at 20° C. in the dark for 2 hours, purified using NAP-5 column, and then protein quantification was performed with Bradford Assay Kit after purification to determine the concentration of KRAS […] 3.16-fold gradient concentration stock solution of 1000× compound was prepared with DMSO, and diluted 250-fold to 4× compound stock solution with reaction buffer (40 mM HEPES, 10 mM MgCl2, 1 mM DTT, 0.002% Triton X-100). KRAS G12C-GDP/Tb working solution (40 nM KRAS […] Tb) and SOS1/GTP working solution (0.2 μM SOS1, 200 μM GTP) were prepared using the reaction buffer. A white opaque 96-well plate was taken, and 5 μL of 4× compound stock solution and 10 μL of KRAS G12C-GDP/Tb working solution were added to each well. 5 μL of reaction buffer instead of 4x compound stock solution was used in the control well. After incubation in the dark for 15 minutes at 20° C., 5μL of SOS1/GTP working solution was added thereto, and the fluorescence value (excitation wavelength: 320 nm, emission wavelength: 615 nm and 665 nm) was read after incubating at 20° C. in the dark for 2 hours. Another T0 group was set up with 10 μL reaction buffer+10 μL KRAS G12C-GDP/Tb working solution, and the fluorescence value was read directly by the microplate reader. The fluorescence signal ratio RLU=(665 nm signal/615 nm signal)×10^4; and the compound inhibition rate IR (%)=(RLUcompound-RLUcontrol)/(RLUT0-RLUcontrol)×100% were calculated. The IC50 value was calculated by fitting the gradient dilution concentration of compound and the corresponding inhibition rate with the four-parameter method. The NEA activity of the compounds prepared in the above embodiments of the present disclosure was 0.0001 μM to 1 μM; the inhibitory activity of some compounds on KRAS G12C mutant MIA PaCa-2 cells was 0.001 μM to 0.5 μM or 0.001 μM to 0.1 μM.

[2] = test system: KRAS G12C mutant NCI-H358 cells; assay: Cell proliferation inhibition experiment, 3D spheroid, CellTiter-Glo, NCI-H358; format: cell-based, human; conditions: Homo sapiens, NCI-H358, 120 h, NCI-H358 (KRAS G12C mutant) 3D spheroid, 5 days with compound, CellTiter-Glo; read-out: H358 IC50
Summary of the method: (§1)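 Luminescence (CellTiter-Glo, 30 min incubation) was read after 5 days of compound treatment of overnight-formed spheroids of 800 H358 or 400 A549 cells in 2% FBS medium. Inhibition relative to DMSO and blank controls was fitted with a four-parameter model to yield IC50.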

[3] = test system: A549 cells (KRAS G12S mutant); assay: Cell proliferation inhibition experiment, 3D spheroid, CellTiter-Glo, A549; format: cell-based, human; conditions: Homo sapiens, A549, 120 h, A549 (KRAS G12S mutant) 3D spheroid, 5 days with compound, CellTiter-Glo; read-out: A549 IC50
Summary of the method: as §1

Structure (SMILES)	IC50 [1] [nM]	IC50 (KRAS G12C) [nM]	IC50 [2] [nM]	IC50 [3] [µM]
C=CC(=O)N1CCN2C(=O)c3c(N4CC(N5CC(C(F)(F)F)C5)CC4(C)C)nc(-c4ccccc4F)c(Cl)c3OC[C@H]2C1 (single isomer, unassigned) [Z608-2]	286	75.8		
C=CC(=O)N1CCN2C(=O)c3c(N4C[C@H](NCC(F)(F)F)CC4(C)C)nc(-c4ccccc4F)c(Cl)c3OC[C@H]2C1 (single isomer, unassigned) [Z662-2]	586	235		
C=CC(=O)N1CCN2C(=O)c3c(N4C[C@@H](N5CC(F)C5)CC4(C)C)nc(-c4ccccc4F)c(F)c3OC[C@H]2C1 [Z654-1, (R)-8-acryloyl-4-fluoro-1-((S)-4-(3-fluoroazetidin-1-yl)-2,2-dimethylpyrrolidin-1-yl)-3-(2-fluorophenyl)-6,6a,7,8,9,10-hexahydro-12H-pyrazino[2,1-c]pyrido[3,4-f][1,4]oxazepin-12-one]	1720	1820		

Further lines, results first:

IC50 [1] [nM]	IC50 (KRAS G12C) [nM]	IC50 [2] [nM]	IC50 [3] [µM]	Structure (SMILES)
73		7	8.68	C=CC(=O)N1CCN2C(=O)c3c(Oc4ccccc4C(C)C)nc(-c4c(O)cccc4F)c(Cl)c3OC[C@H]2C1 [Z18, (6aR)-8-acryloyl-4-chloro-3-(2-fluoro-6-hydroxyphenyl)-1-(2-isopropylphenoxy)-6,6a,7,8,9,10-hexahydro-12H-pyrazino[2,1-c]pyrido[3,4-f][1,4]oxazepin-12-one]
143		29		C=CC(=O)N1CCN2C(=O)c3c(N4CCN5CCCC5(C)C4)nc(-c4c(O)cccc4F)c(Cl)c3OC[C@H]2C1 (stereo partly drawn) [Z339, (6aR)-8-acryloyl-4-chloro-3-(2-fluoro-6-hydroxyphenyl)-1-(8a-methyloctahydropyrrolo[1,2-c]pyrazin-6 (2H)-one-1-yl)-6,6a,7,8,9,10-hexahydro-12H-pyrazino[2,1-c]pyrido[3,4-f][1,4]oxazepin-12-one]
260	340			C=CC(=O)N1CCN2C(=O)c3c(N4C[C@H](C)N(C)C[C@@H]4C)nc(-c4ccccc4F)c(Cl)c3OC[C@H]2C1 [Z483, (R)-8-acryloyl-4-chloro-3-(2-fluorophenyl)-1-((2S,5S)-2,4,5-trimethylpiperazin-1-yl)-6,6a,7,8,9,10-hexahydro-12H-pyrazino[2,1-c]pyrido[3,4-f][1,4]oxazepin-12-one]
93	31.5			C=CC(=O)N1CCN2C(=O)c3c(N4CC(N(C)CC)CC4(C)C)nc(-c4ccccc4F)c(Cl)c3OC[C@H]2C1 (stereo partly drawn) [Z657, (6aR)-8-acryloyl-4-chloro-1-(4-(methylethylamine)-2,2-dimethylpyrrolidin-1-yl)-3-(2-fluorophenyl)-6,6a,7,8,9,10-hexahydro-12H-pyrazino[2,1-c]pyrido[3,4-f][1,4]oxazepin-12-one]
